CN1COCN(Cc2cnc(Cl)s2)C1=N[N+](=O)[O-]
solubility (mole fraction)
Conditions | 278.15 K | 283.15 K | 288.15 K | 293.15 K | 298.15 K | 303.15 K | 308.15 K | 313.15 K | 318.15 K | 323.15 K
in DMF | 0.059 | 0.0658 | 0.0738 | 0.0816 | 0.0892 | 0.0985 | 0.11 | 0.123 | 0.137 | 0.152
in NMP | 0.0818 | 0.0882 | 0.0952 | 0.102 | 0.111 | 0.119 | 0.128 | 0.138 | 0.149 | 0.161
in acetone | 0.00632 | 0.00763 | 0.00888 | 0.0101 | 0.0121 | 0.014 | 0.0164 | 0.0194 | 0.023 | 0.0268
in dichloromethane | 0.0126 | 0.0152 | 0.0174 | 0.0197 | 0.0222 | 0.0249 | 0.0277 | 0.0306 | – | –
in ethyl acetate | 0.00099 | 0.00125 | 0.00155 | 0.00183 | 0.0022 | 0.00257 | 0.00295 | 0.00339 | 0.00384 | 0.00429
in methyl acetate | 0.00283 | 0.00331 | 0.00382 | 0.00446 | 0.00511 | 0.00597 | 0.00708 | 0.00825 | 0.0096 | 0.0114

Reference: BigSolDB 2.1
